Like-named read-outs stand apart in the source and are kept apart here.
Experiments:
Assay in all cases: selectivity profiling in a panel of 340 wild-type kinases (Reaction Biology Europe)
Assay type in all cases: binding
340 wild-type kinases [1] = biological target: T1, 340 wild-type kinases (Homo sapiens, UniProt P07949)
T1 construct: purchased Reaction Biology Europe

340 wild-type kinases [2] = biological target: T2, 340 wild-type kinases (Homo sapiens, UniProt P10721)
T2 construct: purchased Reaction Biology Europe

340 wild-type kinases [3] = biological target: T3, 340 wild-type kinases (Homo sapiens, UniProt P30530)
T3 construct: purchased Reaction Biology Europe
T3 sequence (P30530 26-894): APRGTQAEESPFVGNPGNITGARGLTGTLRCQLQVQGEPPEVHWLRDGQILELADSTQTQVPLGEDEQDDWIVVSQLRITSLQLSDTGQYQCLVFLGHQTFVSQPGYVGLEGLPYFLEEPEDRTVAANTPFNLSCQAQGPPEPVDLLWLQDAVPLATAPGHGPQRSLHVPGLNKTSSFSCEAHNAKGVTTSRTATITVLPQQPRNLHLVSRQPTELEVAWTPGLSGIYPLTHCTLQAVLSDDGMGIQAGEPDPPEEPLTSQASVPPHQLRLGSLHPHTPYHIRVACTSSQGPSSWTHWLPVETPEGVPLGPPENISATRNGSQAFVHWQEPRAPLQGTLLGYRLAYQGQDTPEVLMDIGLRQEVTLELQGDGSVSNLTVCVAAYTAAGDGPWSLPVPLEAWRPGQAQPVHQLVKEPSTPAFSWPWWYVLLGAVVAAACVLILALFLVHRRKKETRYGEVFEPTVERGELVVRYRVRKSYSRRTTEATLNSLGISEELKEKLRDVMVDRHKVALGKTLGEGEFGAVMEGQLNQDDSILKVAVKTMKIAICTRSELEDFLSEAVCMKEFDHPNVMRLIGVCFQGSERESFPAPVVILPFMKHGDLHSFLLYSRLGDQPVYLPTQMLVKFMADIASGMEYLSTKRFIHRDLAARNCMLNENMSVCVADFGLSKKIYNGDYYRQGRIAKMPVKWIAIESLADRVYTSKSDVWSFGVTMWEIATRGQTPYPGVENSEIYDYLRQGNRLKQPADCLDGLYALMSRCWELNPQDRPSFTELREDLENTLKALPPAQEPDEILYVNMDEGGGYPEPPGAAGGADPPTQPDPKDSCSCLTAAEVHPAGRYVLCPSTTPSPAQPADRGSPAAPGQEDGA

340 wild-type kinases [4] = biological target: T4, 340 wild-type kinases (Homo sapiens, UniProt P51812)
T4 construct: purchased Reaction Biology Europe

340 wild-type kinases [5] = biological target: T5, 340 wild-type kinases (Homo sapiens, UniProt Q16816)
T5 construct: purchased Reaction Biology Europe

340 wild-type kinases [6] = biological target: T6, 340 wild-type kinases (Homo sapiens, UniProt Q86Y07)
T6 construct: purchased Reaction Biology Europe

340 wild-type kinases [7] = biological target: T7, 340 wild-type kinases (Homo sapiens, UniProt Q8WTQ7)
T7 construct: purchased Reaction Biology Europe
T7 sequence (Q8WTQ7 1-553): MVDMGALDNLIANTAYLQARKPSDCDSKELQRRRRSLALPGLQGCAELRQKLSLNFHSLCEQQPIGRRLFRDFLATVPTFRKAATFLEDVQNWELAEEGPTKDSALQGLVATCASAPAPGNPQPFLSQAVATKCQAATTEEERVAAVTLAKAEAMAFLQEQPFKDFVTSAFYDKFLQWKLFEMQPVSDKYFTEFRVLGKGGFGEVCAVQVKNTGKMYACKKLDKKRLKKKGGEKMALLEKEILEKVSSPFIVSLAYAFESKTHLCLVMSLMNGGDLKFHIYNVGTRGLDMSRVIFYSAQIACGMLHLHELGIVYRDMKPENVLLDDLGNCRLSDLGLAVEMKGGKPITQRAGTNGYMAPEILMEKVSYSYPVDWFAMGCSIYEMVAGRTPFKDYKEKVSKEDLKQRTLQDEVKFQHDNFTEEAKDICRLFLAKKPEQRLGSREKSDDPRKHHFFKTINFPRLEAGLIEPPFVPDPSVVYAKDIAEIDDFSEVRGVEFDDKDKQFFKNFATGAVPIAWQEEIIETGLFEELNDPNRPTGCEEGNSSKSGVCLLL

T1 sequence (P07949 29-1114): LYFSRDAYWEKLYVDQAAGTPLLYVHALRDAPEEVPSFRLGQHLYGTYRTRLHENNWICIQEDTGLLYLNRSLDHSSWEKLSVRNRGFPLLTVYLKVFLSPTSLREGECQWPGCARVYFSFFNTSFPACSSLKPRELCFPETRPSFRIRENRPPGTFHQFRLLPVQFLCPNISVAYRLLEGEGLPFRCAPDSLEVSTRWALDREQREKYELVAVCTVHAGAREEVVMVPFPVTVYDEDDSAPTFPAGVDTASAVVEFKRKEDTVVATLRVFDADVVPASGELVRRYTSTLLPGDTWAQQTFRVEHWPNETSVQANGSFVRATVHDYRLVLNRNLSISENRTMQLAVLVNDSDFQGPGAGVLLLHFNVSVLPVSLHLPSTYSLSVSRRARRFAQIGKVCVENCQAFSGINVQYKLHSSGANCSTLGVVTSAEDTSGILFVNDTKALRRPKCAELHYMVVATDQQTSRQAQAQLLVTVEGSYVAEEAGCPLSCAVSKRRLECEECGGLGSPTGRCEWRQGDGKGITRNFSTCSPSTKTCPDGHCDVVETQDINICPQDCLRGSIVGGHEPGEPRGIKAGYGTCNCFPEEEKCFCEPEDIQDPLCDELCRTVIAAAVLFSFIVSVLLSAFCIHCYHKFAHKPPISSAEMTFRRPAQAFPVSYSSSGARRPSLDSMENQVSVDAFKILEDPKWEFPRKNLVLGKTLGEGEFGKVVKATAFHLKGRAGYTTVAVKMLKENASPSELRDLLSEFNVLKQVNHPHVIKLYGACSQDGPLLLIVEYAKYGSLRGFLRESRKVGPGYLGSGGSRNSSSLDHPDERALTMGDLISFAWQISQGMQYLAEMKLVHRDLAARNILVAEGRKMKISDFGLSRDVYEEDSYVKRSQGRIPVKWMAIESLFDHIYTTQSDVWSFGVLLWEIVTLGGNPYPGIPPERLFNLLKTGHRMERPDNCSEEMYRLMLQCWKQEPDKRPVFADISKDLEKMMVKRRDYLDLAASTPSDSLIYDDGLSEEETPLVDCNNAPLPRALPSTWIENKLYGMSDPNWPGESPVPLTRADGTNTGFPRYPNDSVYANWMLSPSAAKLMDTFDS
T4 sequence (P51812 whole entry): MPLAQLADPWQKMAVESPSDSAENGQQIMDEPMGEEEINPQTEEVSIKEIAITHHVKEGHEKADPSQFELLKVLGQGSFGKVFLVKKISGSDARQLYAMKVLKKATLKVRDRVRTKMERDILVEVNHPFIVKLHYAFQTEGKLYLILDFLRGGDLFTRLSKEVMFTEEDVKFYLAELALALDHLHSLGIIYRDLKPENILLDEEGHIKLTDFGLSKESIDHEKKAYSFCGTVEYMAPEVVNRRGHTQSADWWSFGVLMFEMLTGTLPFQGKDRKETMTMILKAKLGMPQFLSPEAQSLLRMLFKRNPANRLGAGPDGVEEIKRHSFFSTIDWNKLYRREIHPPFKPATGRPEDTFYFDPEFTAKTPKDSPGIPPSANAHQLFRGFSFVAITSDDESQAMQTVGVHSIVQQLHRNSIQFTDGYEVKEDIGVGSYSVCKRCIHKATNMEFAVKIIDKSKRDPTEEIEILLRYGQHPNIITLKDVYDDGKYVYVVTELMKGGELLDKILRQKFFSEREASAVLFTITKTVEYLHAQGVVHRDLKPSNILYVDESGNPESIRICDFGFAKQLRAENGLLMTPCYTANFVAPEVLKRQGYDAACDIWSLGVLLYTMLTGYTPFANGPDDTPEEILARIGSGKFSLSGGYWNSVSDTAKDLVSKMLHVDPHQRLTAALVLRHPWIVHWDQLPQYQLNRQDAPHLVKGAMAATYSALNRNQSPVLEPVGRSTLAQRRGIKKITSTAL
T6 sequence (Q86Y07 whole entry): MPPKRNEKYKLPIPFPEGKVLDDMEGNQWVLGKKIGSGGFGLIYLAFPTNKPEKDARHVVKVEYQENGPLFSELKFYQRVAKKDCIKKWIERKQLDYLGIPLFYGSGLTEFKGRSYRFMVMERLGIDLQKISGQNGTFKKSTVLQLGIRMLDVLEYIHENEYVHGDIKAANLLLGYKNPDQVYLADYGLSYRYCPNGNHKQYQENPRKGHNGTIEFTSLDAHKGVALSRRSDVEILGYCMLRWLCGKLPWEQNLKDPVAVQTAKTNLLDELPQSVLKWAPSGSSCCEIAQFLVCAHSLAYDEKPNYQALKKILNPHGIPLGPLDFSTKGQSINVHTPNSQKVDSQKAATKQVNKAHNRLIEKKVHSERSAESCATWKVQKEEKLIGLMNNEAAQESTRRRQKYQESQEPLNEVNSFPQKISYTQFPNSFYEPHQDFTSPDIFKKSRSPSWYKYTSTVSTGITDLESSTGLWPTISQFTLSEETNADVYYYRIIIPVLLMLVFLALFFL
T2 sequence (P10721 26-976): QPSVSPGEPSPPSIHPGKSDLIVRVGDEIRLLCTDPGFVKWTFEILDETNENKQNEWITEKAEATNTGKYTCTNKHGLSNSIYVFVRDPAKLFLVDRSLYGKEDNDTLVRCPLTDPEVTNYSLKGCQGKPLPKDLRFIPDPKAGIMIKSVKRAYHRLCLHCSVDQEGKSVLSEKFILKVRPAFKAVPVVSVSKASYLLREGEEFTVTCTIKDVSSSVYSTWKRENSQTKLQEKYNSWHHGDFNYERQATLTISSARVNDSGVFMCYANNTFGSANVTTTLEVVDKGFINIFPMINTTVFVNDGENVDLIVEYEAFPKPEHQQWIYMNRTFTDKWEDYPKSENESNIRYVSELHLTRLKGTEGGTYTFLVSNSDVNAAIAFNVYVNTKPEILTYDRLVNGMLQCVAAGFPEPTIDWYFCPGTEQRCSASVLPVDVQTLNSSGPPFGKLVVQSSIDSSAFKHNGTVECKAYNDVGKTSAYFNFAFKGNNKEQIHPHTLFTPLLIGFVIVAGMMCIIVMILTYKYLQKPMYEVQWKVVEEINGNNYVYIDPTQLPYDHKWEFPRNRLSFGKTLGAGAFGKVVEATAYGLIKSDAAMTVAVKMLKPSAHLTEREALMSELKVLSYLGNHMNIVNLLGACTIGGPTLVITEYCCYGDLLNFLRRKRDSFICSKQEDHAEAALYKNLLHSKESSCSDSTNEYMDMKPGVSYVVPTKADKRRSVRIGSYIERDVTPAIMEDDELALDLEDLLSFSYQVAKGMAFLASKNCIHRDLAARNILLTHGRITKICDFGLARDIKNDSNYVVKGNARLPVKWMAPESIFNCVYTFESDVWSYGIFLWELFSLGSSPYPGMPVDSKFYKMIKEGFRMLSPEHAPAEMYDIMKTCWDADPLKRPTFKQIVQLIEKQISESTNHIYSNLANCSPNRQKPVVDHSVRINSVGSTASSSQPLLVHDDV
T5 sequence (Q16816 whole entry): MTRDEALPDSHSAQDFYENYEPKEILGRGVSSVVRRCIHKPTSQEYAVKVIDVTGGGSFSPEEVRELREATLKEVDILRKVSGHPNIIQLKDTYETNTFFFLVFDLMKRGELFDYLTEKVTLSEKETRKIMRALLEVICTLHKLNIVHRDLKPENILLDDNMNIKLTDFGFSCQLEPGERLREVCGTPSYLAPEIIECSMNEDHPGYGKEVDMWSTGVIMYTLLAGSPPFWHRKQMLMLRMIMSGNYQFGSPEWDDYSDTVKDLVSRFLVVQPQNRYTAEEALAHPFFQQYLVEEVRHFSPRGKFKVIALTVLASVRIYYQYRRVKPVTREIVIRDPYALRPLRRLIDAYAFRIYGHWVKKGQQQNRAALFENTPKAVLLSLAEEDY

CNC(=O)c1ccc2c(c1)C(=O)c1ccc(Nc3ccc(F)c(NC(=O)C4CC4)c3)cc1CC2 [Compound 2015]
remaining activity at 0.2 µM (340 wild-type kinases [1]; 0.2 µM 2015, read-out: RET residual activity): 105% | remaining activity at 1 µM (340 wild-type kinases [1]; 1 µM 2015, read-out: RET residual activity): 80.3% | remaining activity at 0.2 µM (340 wild-type kinases [1]; RET, 0.2 µM, read-out: residual activity): 105% | remaining activity at 1 µM (340 wild-type kinases [1]; RET, 1 µM, read-out: residual activity): 80.3% | remaining activity at 0.2 µM (340 wild-type kinases [2]; 0.2 µM 2015, read-out: KIT residual activity): 114% | remaining activity at 1 µM (340 wild-type kinases [2]; 1 µM 2015, read-out: KIT residual activity): 109% | remaining activity at 0.2 µM (340 wild-type kinases [2]; KIT, 0.2 µM, read-out: residual activity): 114% | remaining activity at 1 µM (340 wild-type kinases [2]; KIT, 1 µM, read-out: residual activity): 109% | remaining activity at 0.2 µM (340 wild-type kinases [3]; 0.2 µM 2015, read-out: AXL residual activity): 106% | remaining activity at 1 µM (340 wild-type kinases [3]; 1 µM 2015, read-out: AXL residual activity): 92.6% | remaining activity at 0.2 µM (340 wild-type kinases [3]; AXL, 0.2 µM, read-out: residual activity): 106% | remaining activity at 1 µM (340 wild-type kinases [3]; AXL, 1 µM, read-out: residual activity): 92.6% | remaining activity at 0.2 µM (340 wild-type kinases [4]; 0.2 µM 2015, read-out: RPS6KA3 residual activity): 107% | remaining activity at 1 µM (340 wild-type kinases [4]; 1 µM 2015, read-out: RPS6KA3 residual activity): 103% | remaining activity at 0.2 µM (340 wild-type kinases [4]; RPS6KA3, 0.2 µM, read-out: residual activity): 107% | remaining activity at 1 µM (340 wild-type kinases [4]; RPS6KA3, 1 µM, read-out: residual activity): 103% | remaining activity at 0.2 µM (340 wild-type kinases [5]; 0.2 µM 2015, read-out: PHKG1 residual activity): 90.9% | remaining activity at 1 µM (340 wild-type kinases [5]; 1 µM 2015, read-out: PHKG1 residual activity): 102% | remaining activity at 0.2 µM (340 wild-type kinases [5]; PHKG1, 0.2 µM, read-out: residual activity): 90.9% | remaining activity at 1 µM (340 wild-type kinases [5]; PHKG1, 1 µM, read-out: residual activity): 102% | remaining activity at 0.2 µM (340 wild-type kinases [6]; 0.2 µM 2015, read-out: VRK2 residual activity): 115% | remaining activity at 1 µM (340 wild-type kinases [6]; 1 µM 2015, read-out: VRK2 residual activity): 118% | remaining activity at 0.2 µM (340 wild-type kinases [6]; VRK2, 0.2 µM, read-out: residual activity): 115% | remaining activity at 1 µM (340 wild-type kinases [6]; VRK2, 1 µM, read-out: residual activity): 118% | remaining activity at 0.2 µM (340 wild-type kinases [7]; 0.2 µM 2015, read-out: GRK7 residual activity): 123% | remaining activity at 1 µM (340 wild-type kinases [7]; 1 µM 2015, read-out: GRK7 residual activity): 106% | remaining activity at 0.2 µM (340 wild-type kinases [7]; GRK7, 0.2 µM, read-out: residual activity): 123% | remaining activity at 1 µM (340 wild-type kinases [7]; GRK7, 1 µM, read-out: residual activity): 106%
